US6498159B1, “Phthalazine derivatives and remedies for erectile dysfunction” (Eisai Co., Ltd., priority 1998, dated 2002)

Tests used:
[1] = test system: penile cavernosum preparation removed from a rabbit; experiment: Augmenting action of PDE5 inhibitor on the relaxation by nitroprusside of the penile cavernosum preparation removed from a rabbit; details: for EC50: Oryctolagus cuniculus, compound concentration at which the contraction caused by phenylephrine is relaxed by 50%, regression analysis on relaxation curve, duplicate; for Relaxation ratio (%): after nitroprusside (300 μM), phenylephrine contraction, mean of duplicate
Procedure: 2) Augmenting Action of the PDE5 Inhibitor on the Relaxing Action of Nitroprusside on a Penile Cavernosum Preparation Removed from a Rabbit
The penis was removed from a NZW white rabbit (about 3 kg) killed by intravenous administration of pentobarbital (50 mg/kg). After removal, the cavernosum was exposed by removal of surrounding tissues such as albuginea to give a preparation (about 10×1.5×1.5 mm). This preparation was suspended on a Magnus tube filled up with 10 ml Krebs-Henseleit's nutritive solution (118.4 mM NaCl, 4.7 mM KCl, 2.5 mM CaCl2, 1.3 mM MgSO4, 1.2 mM KH2PO4, 25.0 mM NaHCO3, 11.0 mM glucose, 0.026 mM EDTA and 0.001 mM indomethacin) at 37° C., and a gas mixture (95% oxygen+5% carbon dioxide) was bubbled thereinto. Then, the isometric tension was recorded under a load of 2 g. To stabilize the contraction, contraction caused by adding a potassium chloride solution (final concentration: 100 mM) and washing were repeated twice, and further, contraction by adding phenylephrine (final concentration: 10 μM) and washing were also conducted.
It was filled up again with 10 ml Krebs-Henseleit's solution, and L-N^G-nitroarginine methyl ester (final concentration: 100 μM) was added to inhibit the formation of endogenous nitrogen monoxide. Contraction was caused by adding phenylephrine (final concentration: 10 μM), and a chemical solution was added thereto at a final concentration of 3, 30 or 300 nM. Dimethyl sulfoxide was used as the medium in this reaction. 15 min after the chemical was added, nitroprusside (final concentration: 300 μM) was added to relax the preparation. Further, papaverine (final concentration: 100 μM) was added to determine the maximum relaxation.
After the experiment, the tension generated upon adding papaverine was used as the base line, and the relaxation of the preparation by adding nitroprusside was recorded on a chart by using a DEGIMATIC CALIPER to determine the degree of relaxation.
Values in the table indicate relaxation ratio (%) after nitroprusside was added to the preparation pretreated with the 3, 30 and 300 nM compound, and the mean in a duplicate experiment was recorded. Further, the EC50 value indicates the compound concentration at which the contraction caused by phenylephrine is relaxed by 50%, and this value was calculated by regression analysis on a relaxation curve in the duplicate experiment.

PDE5 = PDE5 (Sus scrofa, UniProt A0A287B475); experiment: Inhibitory action on the enzyme cGMP-PDE obtained from porcine platelets; type: biochemical; details: 1 μM cGMP substrate, 1 mM EGTA, read-out: PDE 5 IC50
Procedure: 1) Inhibitory Action on the Enzyme cGMP-PDE Obtained from Porcine Platelets
The inhibitory activity of a test compound on the enzyme cGMP-PDE prepared from porcine platelets was determined by adding a solution of the test compound dissolved in DMSO to a reaction solution, where 1 μM cGMP was used as the substrate in the presence of 1 mM EGTA in accordance with a method of Tompson et al. The final concentration of DMSO in the reaction solution was 1% or less. Preparation of cGMP-PDE was conducted as follows. Porcine platelets were added to buffer A (20 mM Tris/HCl, 2 mM magnesium acetate, 10 mM 2-mercaptoethanol, 0.1 mM EGTA; pH 7.4), and then sonicated. The resulting suspension was centrifuged at 100,000×g for 60 min, and the resulting supernatant was subjected to a column (DEAE-Toyopearl 650S produced by Tosoh, Tokyo, Japan). After the column was washed with buffer A, the enzyme was eluted with a gradient of from 0.075 to 0.25 M NaCl in buffer A to give a CGMP-PDE fraction. The resulting fraction was dialyzed, concentrated and stored.

[2] = preparation pretreated with 3 nM compound
[3] = preparation pretreated with 30 nM compound
[4] = preparation pretreated with 300 nM compound

SMILES | EC50 [1] [nM] | Relaxation ratio (%) [1, 2] [%] | Relaxation ratio (%) [1, 3] [%] | Relaxation ratio (%) [1, 4] [%] | IC50 (PDE5) [nM]
COc1ccc(CNc2nnc(N3CCC(F)(CO)CC3)c3ccc(C#N)cc23)cc1Br.Cl [Example 83, 4-[(3-Bromo-4-methoxybenzyl)amino]-1-[4-fluoro-4-(hydroxymethyl)piperidino]-6-phthalazinecarbonitrile Hydrochloride] | 2.8 | 50.6 | 67.3 | 69.9 | 0.5
COc1ccc(CNc2nnc(N3CCC4(CC3)CC(O)C4)c3ccc(C#N)cc23)cc1Cl.Cl [Example 9, 4-[(3-Chloro-4-methoxybenzyl)amino]-1-(2-hydroxy-7-azaspiro[3.5]non-7-yl)-6-phthalazinecarbonitrile Hydrochloride] | 2 | 56.6 | 77.7 | 79.6 | 0.54
COc1ccc(CNc2nnc(N3CCC(F)(CO)CC3)c3ccc(C#N)cc23)cc1C.Cl [Example 88, 1-[4-Fluoro-4-(hydroxymethyl)piperidino]-4-[(4-methoxy-3-methylbenzyl)amino]-6-phthalazinecarbonitrile Hydrochloride] | 3 | 50.0 | 67.5 | 75.0 | 0.89
COc1ccc(CNc2nnc(N3CCC(O)CC3)c3ccc(C#N)cc23)cc1C.Cl [Example 86, 1-(4-Hydroxypiperidino)-4-[(4-methoxy-3-methylbenzyl)amino]-6-phthalazinecarbonitrile Hydrochloride] | 3 | 50.2 | 70.2 | 71.5 | –
COc1ccc(CNc2nnc(N3CCC(C(F)CO)CC3)c3ccc(C#N)cc23)cc1Cl.Cl (stereo not drawn) [Example 36, 4-[(3-Chloro-4-methoxybenzyl)amino]-1-(4-[1-fluoro-2-hydroxyethyl)piperidino]-6-phthalazinecarbonitrile Hydrochloride] | 3.5 | 35.0 | 60.8 | 54.8 | 0.25
COc1ccc(CNc2nnc(N3CCC(O)CC3)c3ccc(C#N)cc23)cc1Br.Cl [Example 77, 4-[(3-Bromo-4-methoxybenzyl)amino]-1-(4-hydroxypiperidino)-6-phthalazinecarbonitrile Hydrochloride] | 0.7 | 58.8 | 71.7 | 80.6 | 0.23
COc1ccc(CNc2nnc(N3CCC(OCCO)CC3)c3ccc(C#N)cc23)cc1Cl.Cl [Example 37, 4-[(3-Chloro-4-methoxybenzyl)amino]-1-[4-(2-hydroxyethoxy)piperidino]-6-phthalazinecarbonitrile Hydrochloride] | 29.3 | 33.4 | 50.1 | 56.0 | –
